Results on one compound are retold here after patent publication US20200062719A1, “Application of Imidazopyridine Derivatives in Regenerative Medicine” (University of Heidelberg, priority 2018, published 2020).

One assay relates to Oct4. The experiment in a line: Luciferase reporter assay in NCCIT-Oct4 cells. The assay is classed as cell-based, human. As to the method: The ability of the lead compound to induce Oct4 at translational level was tested in a luciferase reporter cell line in human embryonic carcinoma NCCIT cells driven by Oct4 response elements (NCCIT-Oct4). The compound lead to a nearly 10-fold induction of Oct4 at 10 nM compared to untreated cells (FIG. 1B). Consequently, the lead compound was named “Oct4 inducing compound 3” (O4I3).
Luciferase reporter assay was performed using Beatle Juice Kit (PJK, Germany) according to the manufacturer's instruction. NCCIT-Oct and NCCIT-Nanog reporter cells were plated into a 24-well plate (100,000 cells/well) for 24 h. Cells were treated with compounds as indicated and harvested with luciferase lysis buffer (25 mM Tris phosphate buffer pH=7.8, 4 mM EGTA, 1% Triton X-100, 10% glycerol and 2 mM fresh DTT, filtered through 0.45 μm sterile filter) at 37° C. for 15 min. The protein concentration was determined by Bradford assay (Sigma, Germany). 100 μL reaction mixture containing luciferin and ATP was added to 20 μL cell lysis in a white plate (Gibco, Germany), incubated for 5 min and measured by a luminometer plate-reader. The activity was determined as percent luminous intensity of treated cells over control cells from at least five-independent experiments.
On the technique in general: In a reporter assay the amount or activity of a reporter protein is the signal.

Assay [1] has as its system hiPSCs. In words: iPSC single cell expansion, viability by MTT assay. The assay is classed as cell-based, human. Conditions: versus absence of O4I3. As to the method:
(§1) Since O4I3 induced sustainable expression of Oct4 and Nanog, the inventors questioned if it supports iPSC self-renewal in single cell expansion. Therefore, the viability of iPSCs, after replating Accutase®-dissociated single iPSCs, was tested in the presence or absence of O4I3. Rocki (Y-27632) was used for the first 24 h to increase iPSCs survival. A nearly 300% higher viability in cells treated with O4I3 (1 nM) was observed. Using 50 nM of O4I3 even 400% increase was observed (FIG. 2A). FACS analysis confirmed homologous expression of iPSCs markers, Tra-1-81 and Oct4, for at least 30 passages (FIG. 2B).
iPSC single cell expansion was performed according to a well-established protocol known in the art (Watanabe et al, Nat Biotechnol, 2007, 25(6), 681-6). Briefly, iPSCs were dissociated with Accutase® as single cell suspension and re-seeded in a Geltrex-coated 96-well plate in the presence of Rock inhibitor for the first 24 h in combination with/without O4I3. Cell viability was performed in MTT assay as disclosed elsewhere (Cheng et al, Mol Oncol. 2016 June; 10(6):806-24).
In general terms: Tetrazolium assays rely on reduction of a dye to a coloured formazan, in cell work by metabolically active cells.

Assay [2] has as its system hiPSCs. In words: Maintenance of hiPSCs, FACS of Tra-1-81 and Oct4 over passages. It counts as cell-based, human. As to conditions: 50 nM O4I3, FACS. How it is done:
as §1
iPSCs were seeded in a 6-well plate coated with Geltrex. Cells were harvested, fixed and permeabilized (if appropriately) as known in the art (Cheng et al, Mol Oncol. 2016 June; 10(6):806-24). Fixed cells were incubated with the primary antibody for 24 h at 4° C. and with the secondary antibody for 1 h at room temperature.

The next assay concerns neural stem cells. The experiment in a line: Maintenance of neural stem cells, MTT viability. It counts as cell-based. Conditions: starting from 1 nM. How it is done:
Neural stem cells were cultivated in SPN medium (DMEM-F12 Knockout medium containing 2% StemPro® NSC SFM, EGF (20 ng/mL) and FGF (20 ng/mL)) until cell confluence reached 80-90%. Acutase was used to get single cell suspension and washed with PBS. 20,000 cells/[…] were seeded into matrigel-coated plates using SPN medium with or without O4I3. The MTT assay was applied to determine cell viability.
The self-renewal of multipotent neural stem cells was also tested with the compound of the current invention. Neural stem cells were cultivated in SPN medium with or without O4I3 at different final concentrations (FIG. 7). The MTT assay was applied to determine cell viability. Starting from a concentration of 1 nM O4I3 the viability of neural stem cells was increased in comparison to mock treated neural stem cells.

For another assay, the system named is iPSCs. The experiment in a line: qRT-PCR gene expression in iPSCs. The assay is classed as cell-based, human. Conditions: 50 nM, 24 h. As to the method: A) O4I3 promoted the viability of hiPSCs in single cell expansion. B) Homogeneous expression of […] and Oct4 up to passage (p) 30 in hiPSCs treated with 50 nM O4I3 analyzed by FACS C) Relative fold changes to non-treatment in hiPSCs treated with O4I3 (50 nM) for 24 h analyzed by qRT-PCR. D) Gene expression profiling analysis of functional annotation enrichment for categories related to pluripotency, development and homeostasis in O4I3-treated iPSCs for 24 h. Data are represented as mean±SD from at least 3 independent experiments ***: p<0.001; **: p<0.01; *: p<0.05.
Quantitative reverse-transcription real-time-PCR was performed using a Light Cycler 96 (Roche, Germany) following the manufacturer's protocol. Briefly, total RNA was isolated from cells using TRIzol (Qiagen, Germany) or NucleoSpin®RNA Plus (Macherey-Nagel, Germany). The same amount of RNA was used to reverse-transcriptional synthesize cDNA by using random primers ProtoScript® First Strand cDNA Synthesis Kit (NEB, Germany). qPCR was performed using the SYBR Green PCR master mix (qPCRBIO SyGreen Mix Lo-Rox, Nippon Genetics, Germany) and the primer pairs indicated below (MWG, Eurofins, Germany). Actin was used as an endogenous control. Data were normalized to the value of untreated cells showing the mean±SD of quadruplicates and are representative of at least three independent experiments.
On the technique in general: Quantitative PCR measures a nucleic acid by following its amplification.

With `Cc1ccc(-c2cn3cc(C)ccc3n2)cc1` [O4I3, 6-methyl-2-(p-tolyl)imidazo[1,2-a]pyridine], the “induction of Oct4 compared to untreated cells” value with Oct4 (10 nM, NCCIT-Oct4 cells, 48 h) is given as about 10 fold. Besides, the “time course of Oct4 activation” value in the assay with Oct4 (over 4 days) was “continuous and constant activation”. Besides, the results for the “higher viability of iPSCs in single cell expansion” value in the assay on hiPSCs [1] (1 nM) and in the assay on hiPSCs [1] (50 nM) were about 300% and 400%, respectively. For the same compound, the “homologous expression of Tra-1-81 and Oct4, number of passages” value in the assay on hiPSCs [2] is listed as “at least 30 passages”. Besides, the “viability of neural stem cells in comparison to mock treated” value in the assay with neural stem cells is “increased”. The “expression of pluripotency-associated genes” value in the assay with iPSCs is “stabilized or slightly increased”.
